Data reported in article PMC10269775, “Penicillin-Binding Protein Occupancy Dataset for 18 β-Lactams and 4 β-Lactamase Inhibitors in Neisseria gonorrhoeae” (Microbiology Spectrum, 2023).
Converted amounts (≈) assume the structure as drawn. Read-outs that look alike come from different tables or passages of the source.

What was measured:
[1] = system: N. gonorrhoeae ATCC 49226; assay: MIC, CLSI broth microdilution; assay type: cell-based, Neisseria gonorrhoeae; conditions: for MIC: Neisseria gonorrhoeae
PBP1 [2] = target: T1, PBP1 (Neisseria gonorrhoeae, UniProt O05131, A375T/F666S); assay: PBP-binding assay (Bocillin FL) in isolated membrane preparations; parameters: species or system Neisseria gonorrhoeae ATCC 49226
T1 construct: endogenous in cells; host or cells: N. gonorrhoeae ATCC 49226, isolated membrane preparation
Excerpt: (§1) Bacterial membranes were collected by ultracentrifugation.

PBP1 [3] = target: T2, PBP1 (Neisseria gonorrhoeae, UniProt O05131); assay: as above; conditions: strain ATCC 19424
T2 construct: endogenous in cells; host or cells: N. gonorrhoeae ATCC 19424, isolated membrane preparation
Excerpt: as §1

N. gonorrhoeae = conditions: single 2-g dose; isolates with an MIC above 0.5 mg/L; cited from earlier work
[4] = system: N. gonorrhoeae ATCC 19424; assay: MIC, CLSI broth microdilution; assay type: cell-based; conditions: Neisseria gonorrhoeae
PBP3 [5] = target: T3, PBP3 (Neisseria gonorrhoeae, UniProt Q5FAB9); conditions: read-out: IC50 PBP3; strain ATCC 49226; membrane preparation, 30 min drug then Bocillin FL
T3 sequence (Q5FAB9 22-469): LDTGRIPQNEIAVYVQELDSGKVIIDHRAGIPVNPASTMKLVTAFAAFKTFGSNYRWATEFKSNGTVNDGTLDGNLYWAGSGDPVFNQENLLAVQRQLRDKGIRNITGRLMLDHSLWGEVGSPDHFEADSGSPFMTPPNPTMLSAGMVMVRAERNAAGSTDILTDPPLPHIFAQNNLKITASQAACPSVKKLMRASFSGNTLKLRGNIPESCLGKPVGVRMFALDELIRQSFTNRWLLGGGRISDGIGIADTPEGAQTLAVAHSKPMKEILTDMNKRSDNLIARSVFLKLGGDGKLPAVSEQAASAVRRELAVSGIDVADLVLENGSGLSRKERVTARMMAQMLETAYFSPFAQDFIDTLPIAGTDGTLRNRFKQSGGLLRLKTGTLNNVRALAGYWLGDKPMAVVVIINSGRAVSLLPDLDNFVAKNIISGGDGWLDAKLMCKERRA

PBP3 [6] = target: T3, PBP3; conditions: read-out: IC50 PBP3; strain ATCC 19424; membrane preparation, 30 min drug then Bocillin FL
PBP1, PBP2 and PBP3 [7] = target: T4, PBP1, PBP2 and PBP3 (Neisseria gonorrhoeae, UniProt Q5FAB9); assay type: binding, Neisseria gonorrhoeae ATCC 19424; conditions: read-out: min. IC50 (minimum observed IC50 value); strain ATCC 19424
T4 sequence (Q5FAB9 22-469): T3 sequence (Q5FAB9 22-469)

PBP2 [8] = target: T5, PBP2 (Neisseria gonorrhoeae, UniProt P08149, A510V/A516G/A574V/F504L/H541N/I556V/I566V/K555Q/P552V); assay: biochemical; assay type: binding, Neisseria gonorrhoeae ATCC 49226
T5 construct: endogenous in cells; host or cells: N. gonorrhoeae ATCC 49226, isolated membrane preparation

PBP2 [9] = target: T6, PBP2 (Neisseria gonorrhoeae, UniProt P08149, H541N); assay: PBP-binding assay (Bocillin FL) in isolated membrane preparations; parameters: species or system Neisseria gonorrhoeae ATCC 19424
T6 construct: endogenous in cells; host or cells: N. gonorrhoeae ATCC 19424, isolated membrane preparation

PBP1, PBP2 and PBP3 [10] = target: T4, PBP1, PBP2 and PBP3; assay type: binding, Neisseria gonorrhoeae ATCC 49226; conditions: read-out: min. IC50 (minimum observed IC50 value); strain ATCC 49226
PBP1, PBP2 and PBP3 [11] = target: PBP1, PBP2 and PBP3 (Neisseria gonorrhoeae, UniProt P08149, H541N); assay type: binding, Neisseria gonorrhoeae ATCC 19424; conditions: read-out: min. IC50 (minimum observed IC50 value); strain ATCC 19424
PBP1, PBP2 and PBP3 [12] = target: PBP1, PBP2 and PBP3 (Neisseria gonorrhoeae, UniProt P08149, A510V/A516G/A574V/F504L/H541N/I556V/I566V/K555Q/P552V); assay type: binding, Neisseria gonorrhoeae ATCC 49226; conditions: read-out: min. IC50 (minimum observed IC50 value); strain ATCC 49226
PBP2 [13] = target: PBP2 (Neisseria gonorrhoeae, UniProt P08149); conditions: read-out: IC50 for PBP2; across both strains ATCC 19424 and ATCC 49226
PBP1, PBP2 and PBP3 [14] = assay type: binding, Neisseria gonorrhoeae ATCC 19424; conditions: strain ATCC 19424
PBP1, PBP2 and PBP3 [15] = assay type: binding, Neisseria gonorrhoeae ATCC 49226; conditions: strain ATCC 49226
[16] = ATCC49226, strain ATCC 49226, read-out: MIC (Table S1)
[17] = IC50 PBP1, strain ATCC 49226, membrane preparation, 30 min drug then Bocillin FL
[18] = membrane preparation, 30 min drug then Bocillin FL, read-out: IC50 PBP1 (converted)
[19] = ATCC19424, strain ATCC 19424, read-out: MIC
[20] = ATCC19424, strain ATCC 19424, read-out: MIC (Table S1)
[21] = ATCC49226, read-out: MIC (Table S1)
[22] = IC50 PBP1 (Table S1), strain ATCC 49226
[23] = IC50 PBP2 (Table S1), strain ATCC 49226
[24] = IC50 PBP2, strain ATCC 49226, membrane preparation, 30 min drug then Bocillin FL
[25] = IC50 PBP2 (Table S1), strain ATCC 19424
[26] = IC50 PBP2, strain ATCC 19424, membrane preparation, 30 min drug then Bocillin FL
[27] = ATCC49226, strain ATCC 49226, read-out: MIC
[28] = ATCC19424, read-out: MIC (Table S1)

Structure (SMILES) | MIC ([1]; ATCC49226) [µg/mL] | MIC [1, 16] [µg/mL] | IC50 (PBP1 [2]; [17]) [µM] | IC50 (PBP1 [3]; [18]) [µM] | MIC [4, 19] [µg/mL] | MIC [4, 20] [µg/mL] | IC50 (PBP3 [5]) [µM] | MIC [1, 21] [µg/mL] | IC50 (PBP1 [2]; [22]) [µM] | IC50 (PBP3 [6]) [µM] | IC50 (PBP2 [8]; [23]) [µM] | IC50 (PBP2 [8]; [24]) [µM] | IC50 (PBP2 [9]; [26]) [µM] | IC50 (PBP1, PBP2 and PBP3 [10]) [µM] | MIC [1, 27] [µg/mL] | IC50 (PBP1, PBP2 and PBP3 [11]) [µM] | IC50 (PBP1, PBP2 and PBP3 [12]) [µM] | IC50 (PBP2 [13]) [µM] | further results
C[C@H]1[C@H](NC(=O)/C(=N\OC(C)(C)C(=O)O)c2csc(N)n2)C(=O)N1S(=O)(=O)O [ATM, aztreonam] | 0.125 (≈ 0.287 µM) | 0.25 (≈ 0.574 µM) | > 4.59 | > 4.59 | 0.032 (≈ 0.0735 µM) | 0.032 (≈ 0.0735 µM) |  |  |  |  |  |  |  |  |  |  |  |  | cure rate (N. gonorrhoeae): 50%
NC(=O)[C@@H]1CC[C@@H]2CN1C(=O)N2OS(=O)(=O)O [AVI, avibactam] | > 256 |  | > 965 | > 1930 |  | 128 (≈ 483 µM) | 20.4 | 512 (≈ 1930 µM) | > 1930 | 8.78 | > 1930 | > 965 | 441 | 20.4 |  |  |  |  | IC50 (PBP1, PBP2 and PBP3 [7]): 8.78 µM; IC50 (PBP2 [9]; [25]): 442 µM
CC(C)(O/N=C(\C(=O)N[C@@H]1C(=O)N2C(C(=O)[O-])=C(C[n+]3ccccc3)CS[C@H]12)c1csc(N)n1)C(=O)O [CAZ, ceftazidime] |  | 0.032 (≈ 0.0585 µM) | > 3.66 | > 3.66 | 0.016 (≈ 0.0293 µM) | 0.016 (≈ 0.0293 µM) | > 3.66 |  |  | > 3.66 |  | 0.0183 | 0.0183 |  | 0.032 (≈ 0.0585 µM) | 0.0183 | 0.0183 | 0.0183 | 
C=CC1=C(C(=O)O)N2C(=O)[C@@H](NC(=O)/C(=N\OCC(=O)O)c3csc(N)n3)[C@H]2SC1 [CFM, cefixime] |  | 0.016 (≈ 0.0353 µM) | > 4.41 | 2.03 | 0.004 (≈ 0.00882 µM) | 0.004 (≈ 0.00882 µM) | > 4.41 |  |  | > 4.41 |  | 0.0441 | 0.0221 |  | 0.016 (≈ 0.0353 µM) | 0.0221 | 0.0441 | 0.0221 | MIC increase for strain ATCC 49226 ([1]; ATCC 49226 versus ATCC 19424): 4 fold
CO/N=C(\C(=O)N[C@@H]1C(=O)N2C(C(=O)O)=C(COC(C)=O)CS[C@H]12)c1csc(N)n1 [CTX, cefotaxime] |  | 0.008 (≈ 0.0176 µM) | > 4.39 | 4.06 | 0.004 (≈ 0.00878 µM) | 0.004 (≈ 0.00878 µM) | 2.24 |  |  | 3.14 |  | 0.022 | 0.022 |  | 0.008 (≈ 0.0176 µM) | 0.022 | 0.022 | 0.022 | 
C[C@@H](O)[C@H]1C(=O)N2C(C(=O)O)=C(S[C@@H]3CN[C@H](CNS(N)(=O)=O)C3)[C@H](C)[C@H]12 [DOR, doripenem] |  | 0.032 (≈ 0.0761 µM) | 2.57 | 2.69 | 0.004 (≈ 0.00951 µM) | 0.004 (≈ 0.00951 µM) |  |  |  |  | 0.214 | 0.19 | 0.143 |  | 0.032 (≈ 0.0761 µM) |  |  |  | min. IC50 (minimum observed IC50 value) (PBP1, PBP2 and PBP3 [14]): 0.01 µg/mL
CC1(C)S[C@@H]2[C@H](NC(=O)Cc3ccccc3)C(=O)N2[C@H]1C(=O)O [PenG, penicillin G] |  | 0.125 (≈ 0.374 µM) | > 5.98 | 5.65 | 0.064 (≈ 0.191 µM) | 0.063 (≈ 0.188 µM) | 0.0299 |  |  | 0.0598 |  | 0.778 | 0.15 | 0.0299 | 0.125 (≈ 0.374 µM) |  |  |  | min. IC50 (minimum observed IC50 value) (PBP1, PBP2 and PBP3 [14]): 0.02 µg/mL
O=C(NC1CCNCC1)[C@@H]1CC[C@@H]2CN1C(=O)N2OS(=O)(=O)O [REL, relebactam] | > 256 |  | > 735 | > 1470 |  |  | 3.76 | 512 (≈ 1470 µM) | > 1470 | 3.65 | > 1470 | > 735 | > 1470 | 3.76 |  |  |  |  | IC50 (PBP1, PBP2 and PBP3 [7]): 3.65 µM; IC50 (PBP2 [9]; [25]): 1470 µM; MIC ([4]; ATCC19424): > 256 µg/mL; MIC [4, 28]: 512 µg/mL (≈ 1470 µM)
CC1(C)[C@H](C(=O)O)N2C(=O)C[C@H]2S1(=O)=O [SUL, sulbactam] | 4 (≈ 17.1 µM) |  | 870 | 236 |  |  | 27.3 | 4 (≈ 17.1 µM) | 871 | 39.9 |  | 25.8 | 5.06 |  |  | 5.06 |  |  | IC50 (PBP1 [3]; read-out: IC50 PBP1 (Table S1) (converted)): 238 µM; MIC ([4]; ATCC19424): 0.25 µg/mL (≈ 1.07 µM); MIC [4, 28]: 0.25 µg/mL (≈ 1.07 µM); min. IC50 (minimum observed IC50 value) (PBP1, PBP2 and PBP3 [15]): 6.02 µg/mL
